Source: patent publication US20250376477A1, “ANALGESIC DELTA OPIOID RECEPTOR BITOPIC LIGANDS” (UNIVERSITY OF SOUTHERN CALIFORNIA, priority 2022, published 2025)

Assays:
[1] = molecular target: T1, DOR (Homo sapiens, UniProt P41143); assay type: cell-based; settings: for potency at DOR: BRET based Gi-1 assay / G-protein pathways; for selectivity for DOR over other opioid subtypes: DOR vs KOR and MOR, BRET based Gi-1 assays; for G-protein bias: G-protein vs arrestin at DOR
[2] = molecular target: KOR (Homo sapiens, UniProt P41145); assay: BRET based Gi-1 assay, activation of KOR; assay type: cell-based
KOR, sequence (P41145 whole entry): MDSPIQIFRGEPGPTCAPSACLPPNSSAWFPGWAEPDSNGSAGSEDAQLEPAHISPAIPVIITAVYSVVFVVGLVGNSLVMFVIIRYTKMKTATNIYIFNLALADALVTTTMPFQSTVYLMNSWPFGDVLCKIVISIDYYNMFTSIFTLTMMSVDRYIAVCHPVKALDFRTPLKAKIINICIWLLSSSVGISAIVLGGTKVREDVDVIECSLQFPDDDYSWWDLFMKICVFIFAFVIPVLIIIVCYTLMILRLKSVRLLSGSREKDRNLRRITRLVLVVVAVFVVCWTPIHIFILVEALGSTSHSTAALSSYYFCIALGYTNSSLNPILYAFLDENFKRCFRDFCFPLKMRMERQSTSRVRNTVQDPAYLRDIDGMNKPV

[3] = molecular target: T1, DOR; assay type: cell-based; settings: compared to known DOR orthosteric site binders
[4] = tested on: C57BL/6J mice; assay: Seizure assay; settings: for seizure occurrence: compared with known DOR agonists; for seizures in seizure assay: C57BL/6J mice, sc injection, C6 quino at analgesic doses
[5] = In vivo analgesia / oral activity in chronic pain models; settings: for Orally active: oral
[6] = tested on: sciatic nerve ligation; assay: Mechanical allodynia induced by sciatic nerve ligation; assay type: in vivo
Protocol: Mechanical allodynia induced by sciatic nerve ligation was reduced between 20 and 140 minutes after treatment with 30 mg/kg C6-quino sc. Supraspinal (icv) antinociception mediated by C6 quino is DOR dependent, yet C6-quino produced no seizures (B, top).

[7] = tested on: C57BL/6J mice; assay: Rotarod assay (motor coordination); settings: sc injection
[8] = molecular target: T2, DOR (Mus musculus, UniProt P32300); assay type: in vivo
T2 construct: from tissue; host or cells: living animal, central nervous system (icv dosing)
T2 sequence (P32300 whole entry): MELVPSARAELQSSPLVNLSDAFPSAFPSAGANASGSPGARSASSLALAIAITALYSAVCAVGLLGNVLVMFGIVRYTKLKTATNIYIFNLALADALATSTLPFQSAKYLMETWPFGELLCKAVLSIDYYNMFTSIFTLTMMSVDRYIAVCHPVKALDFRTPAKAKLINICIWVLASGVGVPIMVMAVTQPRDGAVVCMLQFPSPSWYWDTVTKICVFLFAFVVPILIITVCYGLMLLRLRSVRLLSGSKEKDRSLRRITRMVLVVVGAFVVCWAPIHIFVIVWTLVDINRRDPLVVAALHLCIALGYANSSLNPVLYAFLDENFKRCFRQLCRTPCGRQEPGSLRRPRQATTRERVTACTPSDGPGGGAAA

[9] = tested on: C57BL/6J mice; assay: Locomotor effects; settings: sc injection, C6-quino 30 mg/kg sc
[10] = PK assays; assay type: in vivo
[11] = tested on: C57BL/6J mice; assay: Respiratory depression; settings: sc injection, morphine 10 mg/kg
[12] = molecular target: T1, DOR; assay type: cell-based; settings: compared to DPDPE and C5 quino
[13] = molecular target: T1, DOR; assay type: cell-based; settings: compared to DPDPE and C5 quino; remark: listed apart in the source
[14] = Microsomal stability; settings: microsomes

T1 sequence (P41143 whole entry): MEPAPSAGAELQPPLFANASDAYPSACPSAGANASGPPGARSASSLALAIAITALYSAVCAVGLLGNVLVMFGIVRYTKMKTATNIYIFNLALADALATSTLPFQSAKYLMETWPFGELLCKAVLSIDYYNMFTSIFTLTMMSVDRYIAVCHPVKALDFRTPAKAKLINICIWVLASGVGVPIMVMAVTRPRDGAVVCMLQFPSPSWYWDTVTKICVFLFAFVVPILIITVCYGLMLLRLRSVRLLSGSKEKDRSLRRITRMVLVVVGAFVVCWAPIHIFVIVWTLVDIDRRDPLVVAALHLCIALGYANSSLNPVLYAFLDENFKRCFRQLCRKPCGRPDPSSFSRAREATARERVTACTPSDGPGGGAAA

Structure (SMILES)	potency at DOR [1]	activity at KOR [2]	functional profile (potency and efficacy) across DOR G protein subtypes and βarrestin-1 and 2 [3]	selectivity for DOR over other opioid subtypes [1]	G-protein bias [1]	seizure occurrence [4]	efficacy in chronic pain models [5]	Orally active [5]	locomotor activity [9]	respiratory depression [11]	seizures in seizure assay [4]	further results
N=C(N)NCCCCCN1CC[C@]23c4c5ccc(O)c4O[C@H]2c2[nH]c4ccccc4c2C[C@@]3(O)[C@H]1C5 [C5-Indole]	high potency	retained activity	–	–	–	–	–	–	–	–	–	–
N=C(N)NCCCCCN1CCC23c4c5ccc(O)c4O[C@H]2c2nc4ccccc4cc2C[C@@]3(O)C1C5 (stereo partly shown) [C5-Quino]	high potency	–	unique functional profiling	selectivity for DOR over other opioid subtypes	–	–	–	–	–	–	–	–
N=C(N)NCCCCCCN1CCC23c4c5ccc(O)c4O[C@H]2c2[nH]c4ccccc4c2C[C@@]3(O)C1C5 (stereo partly shown) [C6-Indole]	high potency	retained activity	–	–	G-protein biased	do not cause seizures	effective in chronic pain models	orally active	–	–	–	–
N=C(N)NCCCCCCN1CCC23c4c5ccc(O)c4O[C@H]2c2nc4ccccc4cc2C[C@@]3(O)C1C5 (stereo partly shown) [C6-Quino]	high potency	–	unique functional profiling	selectivity for DOR over other opioid subtypes	G-protein biased	do not cause seizures	effective in chronic pain models	orally active	did not significantly differ from the vehicle at any time point	did not cause significant respiratory depression	no seizures	anti-allodynic effect in presence of NTB ([6]; antagonist NTB): antagonized by NTB; anti-allodynic activity ([6]; sciatic nerve ligation, mechanical allodynia): dose- and time-dependent anti-allodynic activity similar to gabapentin; sedation in rotarod assay [7]: no propensity to cause sedation; supraspinal (icv) antinociception, receptor dependence [8]: DOR dependent; intrinsic efficacy at DOR, G-protein ([1]; compared to DPDPE and C5 quino): lower intrinsic efficacy; brain penetration ([10]; PK assays): good; systemic availability ([10]; PK assays): good; half-life ([10]; in vivo): 2 h; seizures ([4]; FIG. 4B top): no seizures; intrinsic efficacy at DOR, βarrestin-2 [12]: lower intrinsic efficacy; intrinsic efficacy at DOR, βarrestin-1 [13]: lower intrinsic efficacy; half-life [14]: > 2 h; Orally active ([5]; listed as 6C-Quino): YES
CN1CC[C@]23c4c5ccc(O)c4O[C@H]2[C@@H](O)C=C[C@H]3[C@H]1C5 [Morphine, reference compound]	–	–	–	–	–	–	–	–	hyperlocomotion	caused respiratory depression	–	–
C=CCN1C[C@H](C)N([C@H](c2ccc(C(=O)N(CC)CC)cc2)c2cccc(OC)c2)C[C@H]1C [SNC80, reference compound]	–	–	–	–	–	–	–	–	–	–	caused seizures	–
